Here are results for 6 substances from patent publication US7915276B2, “Berberrubine derivatives having antifungal activities” (priority 2006, dated 2011).

In experiment [1] the target is T1, chitin synthase 1 of Candida albicans chs2 Δ chs 3 Δ (Candida albicans, UniProt P23316).
T1 construct: Crude enzyme was prepared using the Candida albicans chs2 Δ chs 3 Δ mutant; endogenous in cells; host or cells: Candida albicans chs2Δ/chs2Δ chs3Δ/chs3Δ mutant; 130,000 x g membrane pellet
Description: In vitro enzyme assay for chitin synthase 1 of Candida albicans (enzyme 1). The experiment is classed as biochemical. The conditions noted are these: relative to polyoxin D (50% inhibitory activity = value 5). The gist of the method: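 Trypsin-activated crude membrane chitin synthase 1 from C. albicans chs2Δ chs3Δ was incubated 90 min at 30 °C with 1.1 mM UDP-[14C]GlcNAc and 2 mM cobalt acetate in Tris-HCl pH 7.5. Filtered TCA precipitate was counted by scintillation; values are scores 1–8 against polyoxin D (5 = same concentration).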

For experiment [2], the target named is T2, chitin synthase 2 of Saccharomyces cerevisiae ECY38-38A(pAS6) (Saccharomyces cerevisiae, UniProt P14180).
T2 construct: made in house; host or cells: Saccharomyces cerevisiae ECY38-38A (chs1-23 chs2::LEU2 cal1/csd2) carrying plasmid pAS6, grown in galactose medium; 130,000 x g membrane pellet
Description: In vitro enzyme assay for chitin synthase 2 of Saccharomyces cerevisiae (enzyme 2). The experiment is classed as biochemical. The conditions noted are these: relative to polyoxin D (50% inhibitory activity = value 5). The gist of the method:
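Values are scores: 5 means 50% inhibition at the same concentration as polyoxin D, lower scores 2- to 16-fold higher concentration, higher scores ½ to ⅛. Radiolabel from 1.1 mM UDP-[14C]-GlcNAc was incorporated into TCA-insoluble chitin over 90 min at 30 °C (pH 7.5 Tris, 2 mM Co2+). The enzyme was a trypsin-activated membrane fraction from CHS2-only S. cerevisiae ECY38-38A(pAS6).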

Experiment [3] deals with Aspergillus flavus ATCC 64025. Description: In vitro antifungal activity (MIC), NCCLS method. The experiment is classed as cell-based. The following applies: 48 hours. From the text:
(§1) Candida albicans ATCC 10231, Candida lusitaniae ATCC 42720, Candida krusei ATCC 6258, Candida tropicalis ATCC 13803, Candida glabrata ATCC 48435, Candida parapsilosis ATCC 34136, Cryptococcus neoformans ATCC 36556, Aspergillus fumigatus ATCC 16424, Aspergillus flavus ATCC 64025, Aspergillus terreus ATCC 46941 and Mucor ramosissimus ATCC 90286 strains for the MIC (minimum inhibitory concentration) measurement were obtained from ATCC (American Type Culture Collection) in the U.S. The Candida albicans A207(clinical isolate) strain was used by isolating it from the patients.
(§2) The determination of MIC was performed according to the NCCLS (National Committee for Clinical Laboratory Standard) method. Each test sample solution was diluted two-fold and inoculated with a fungal suspension to reach a final inoculum size of 5×10^2 to 2.5×10^3 cell/mL. The Cryptococcus neoformans strain was cultured in the RPMI 1640 medium for 72 hours. Other strains were cultured for 48 hours.

For experiment [4], the system named is Aspergillus fumigatus ATCC 16424. Description: In vitro antifungal activity (MIC), NCCLS method. The experiment is classed as cell-based. The following applies: 48 hours.
From the text: as §1, §2

The subject of experiment [5] is Aspergillus terreus ATCC 46941. Briefly: In vitro antifungal activity (MIC), NCCLS method. The experiment is classed as cell-based. The following applies: 48 hours.
From the text: as §1, §2

In experiment [6] the test system is Candida albicans A207 (clinical isolate). Briefly: In vitro antifungal activity (MIC), NCCLS method. The experiment is classed as cell-based. The conditions noted are these: 48 hours.
From the text: as §1, §2

The test system of experiment [7] is Candida albicans ATCC 10231. Briefly: In vitro antifungal activity (MIC), NCCLS method. The experiment is classed as cell-based. The conditions noted are these: 48 hours.
From the text: as §1, §2

Experiment [8] relates to Candida glabrata ATCC 48435. Description: In vitro antifungal activity (MIC), NCCLS method. The following applies: Candida glabrata ATCC 48435; 48 hours. The experiment is classed as cell-based.
From the text: as §1, §2

Experiment [9] concerns Candida krusei ATCC 6258. Description: In vitro antifungal activity (MIC), NCCLS method. The experiment is classed as cell-based. The following applies: 48 hours.
From the text: as §1, §2

Experiment [10] has as its system Candida lusitaniae ATCC 42720. Description: In vitro antifungal activity (MIC), NCCLS method. The experiment is classed as cell-based. The conditions noted are these: 48 hours.
From the text: as §1, §2

In experiment [11] the test system is Candida parapsilosis ATCC 34136. Briefly: In vitro antifungal activity (MIC), NCCLS method. The experiment is classed as cell-based. The conditions noted are these: Candida parapsilosis ATCC 34136; 48 hours.
From the text: as §1, §2

For experiment [12], the system named is Candida tropicalis ATCC 13803. Briefly: In vitro antifungal activity (MIC), NCCLS method. The experiment is classed as cell-based. The conditions noted are these: 48 hours.
From the text: as §1, §2

In experiment [13] the test system is Cryptococcus neoformans ATCC 36556. Description: In vitro antifungal activity (MIC), NCCLS method. The experiment is classed as cell-based. The conditions noted are these: RPMI 1640 medium, 72 hours.
From the text: as §1, §2

Experiment [14] relates to Mucor ramosissimus ATCC 90286. Briefly: In vitro antifungal activity (MIC), NCCLS method. The experiment is classed as cell-based. The conditions noted are these: 48 hours.
From the text: as §1, §2

T1 sequence (P23316 whole entry, stated change not applied): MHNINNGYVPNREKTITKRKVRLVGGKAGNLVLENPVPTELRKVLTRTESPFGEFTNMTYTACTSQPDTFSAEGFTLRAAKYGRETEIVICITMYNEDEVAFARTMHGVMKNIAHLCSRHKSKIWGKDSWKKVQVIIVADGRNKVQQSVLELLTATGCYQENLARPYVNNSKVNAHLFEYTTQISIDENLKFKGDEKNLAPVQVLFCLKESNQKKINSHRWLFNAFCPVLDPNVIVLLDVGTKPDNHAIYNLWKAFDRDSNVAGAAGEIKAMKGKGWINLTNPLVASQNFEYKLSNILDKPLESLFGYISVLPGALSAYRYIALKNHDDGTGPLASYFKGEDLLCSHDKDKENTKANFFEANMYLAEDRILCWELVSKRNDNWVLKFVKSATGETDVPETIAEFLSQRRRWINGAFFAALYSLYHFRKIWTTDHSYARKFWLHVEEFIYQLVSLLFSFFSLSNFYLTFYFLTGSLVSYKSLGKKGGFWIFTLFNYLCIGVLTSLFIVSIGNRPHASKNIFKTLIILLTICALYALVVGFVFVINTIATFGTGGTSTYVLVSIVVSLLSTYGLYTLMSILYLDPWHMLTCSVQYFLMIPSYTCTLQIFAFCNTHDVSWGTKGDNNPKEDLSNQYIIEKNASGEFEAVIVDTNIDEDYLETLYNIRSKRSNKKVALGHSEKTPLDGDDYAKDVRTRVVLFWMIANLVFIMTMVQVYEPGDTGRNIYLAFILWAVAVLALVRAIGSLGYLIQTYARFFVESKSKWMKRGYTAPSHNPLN
T2 sequence (P14180 whole entry): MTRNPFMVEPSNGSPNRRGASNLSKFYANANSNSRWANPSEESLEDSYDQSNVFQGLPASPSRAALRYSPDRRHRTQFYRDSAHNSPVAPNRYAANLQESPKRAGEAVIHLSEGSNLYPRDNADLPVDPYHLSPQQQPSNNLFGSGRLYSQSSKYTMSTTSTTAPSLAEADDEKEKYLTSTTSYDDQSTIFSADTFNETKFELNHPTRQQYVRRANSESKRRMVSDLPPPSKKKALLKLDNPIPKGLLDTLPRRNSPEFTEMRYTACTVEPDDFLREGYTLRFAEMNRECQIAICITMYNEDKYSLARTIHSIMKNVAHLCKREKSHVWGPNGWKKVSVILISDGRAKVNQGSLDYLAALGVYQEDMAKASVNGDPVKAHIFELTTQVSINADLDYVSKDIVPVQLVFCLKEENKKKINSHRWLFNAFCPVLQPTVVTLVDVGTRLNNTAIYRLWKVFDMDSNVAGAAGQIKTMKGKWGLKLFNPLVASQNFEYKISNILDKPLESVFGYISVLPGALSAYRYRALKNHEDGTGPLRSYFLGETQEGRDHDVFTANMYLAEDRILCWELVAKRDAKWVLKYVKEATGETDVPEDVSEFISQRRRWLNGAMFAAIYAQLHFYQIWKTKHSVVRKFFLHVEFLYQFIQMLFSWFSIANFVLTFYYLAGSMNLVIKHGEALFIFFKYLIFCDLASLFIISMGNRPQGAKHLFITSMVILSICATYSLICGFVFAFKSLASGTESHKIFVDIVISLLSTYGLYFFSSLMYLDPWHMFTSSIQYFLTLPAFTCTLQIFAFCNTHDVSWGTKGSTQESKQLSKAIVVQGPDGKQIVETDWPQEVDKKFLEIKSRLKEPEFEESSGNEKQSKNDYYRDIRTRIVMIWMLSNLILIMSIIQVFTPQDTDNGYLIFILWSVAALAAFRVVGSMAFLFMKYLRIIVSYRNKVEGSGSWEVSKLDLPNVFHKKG

Regarding “13-(4-Isopropylbenzyl)-9-O-(6-chlorohexyl)berberrubine chloride [Compound No. 54]”, in [1], the “Relative activity Enzyme 1” value was 2 (Compounds having the inhibitory activity at 2-fold, 4-fold, 8-fold and 16-fold higher concentrations than that of polyoxin D were given the values of 4, 3, 2 and 1, respectively). Also, the “Relative activity Enzyme 2” value in experiment [2] was 6 (compounds having the inhibitory activity at ½, ¼ and ⅛ lower concentrations than that of polyoxin D were given the values of 6, 7 and 8, respectively). The “MIC (minimum inhibitory concentration)” value in experiment [3] was found to be 8 µg/mL; in experiment [4], 2 µg/mL; in experiment [5], 8 µg/mL; in experiment [6], 0.5 µg/mL; in [7], 0.5 µg/mL; in [8], 2 µg/mL. For the same substance, the “MIC (minimum inhibitory concentration)” value in experiment [9] was found to be 1 µg/mL; in experiment [10], 2 µg/mL; in [11], 2 µg/mL; in experiment [12] it was 0.5 µg/mL; in experiment [13] it was 1 µg/mL; in experiment [14], 4 µg/mL.
On to “13-(4-Isopropylbenzyl)-9-O-allylberberrubine chloride [Compound No. 55]”, for which, in experiment [1], the “Relative activity Enzyme 1” value is 3 (Compounds having the inhibitory activity at 2-fold, 4-fold, 8-fold and 16-fold higher concentrations than that of polyoxin D were given the values of 4, 3, 2 and 1, respectively). The “Relative activity Enzyme 2” value in experiment [2] is 6 (compounds having the inhibitory activity at ½, ¼ and ⅛ lower concentrations than that of polyoxin D were given the values of 6, 7 and 8, respectively). Besides, the “MIC (minimum inhibitory concentration)” value in experiment [3] came to 8 µg/mL; in experiment [4] it was 8 µg/mL; in [5], 8 µg/mL; in experiment [6], 1 µg/mL; in [7] it was 1 µg/mL; in experiment [8] it was 8 µg/mL. Besides, the “MIC (minimum inhibitory concentration)” value in [9] was 2 µg/mL; in experiment [10] it was 2 µg/mL; in experiment [11], 4 µg/mL; in experiment [12] it was 1 µg/mL; in experiment [13], 2 µg/mL; in experiment [14], 4 µg/mL.
With “13-(4-Isopropylbenzyl)-9-O-allylberberrubine iodide [Compound No. 23]”, in [1], the “Relative activity Enzyme 1” value is 2 (Compounds having the inhibitory activity at 2-fold, 4-fold, 8-fold and 16-fold higher concentrations than that of polyoxin D were given the values of 4, 3, 2 and 1, respectively). For the same substance, the “Relative activity Enzyme 2” value in [2] is reported as 5 (A compound having the same inhibitory activity as that of polyoxin D at the same concentration was given the value 5). Besides, the “MIC (minimum inhibitory concentration)” value came out at 8 µg/mL in experiment [3]; 8 µg/mL in experiment [4]; 8 µg/mL in experiment [5]; 1 µg/mL in [6]; 1 µg/mL in experiment [7]; 8 µg/mL in experiment [8]. Further, the “MIC (minimum inhibitory concentration)” value in experiment [9] turned out to be 2 µg/mL; in experiment [10], 2 µg/mL; in [11], 4 µg/mL; in experiment [12], 1 µg/mL; in experiment [13] it was 2 µg/mL; in experiment [14] it was 4 µg/mL.
In the case of “13-(4-Isopropylbenzyl)-9-O-crotylberberrubine bromide [Compound No. 24]”, the “Relative activity Enzyme 1” value in experiment [1] was 2 (Compounds having the inhibitory activity at 2-fold, 4-fold, 8-fold and 16-fold higher concentrations than that of polyoxin D were given the values of 4, 3, 2 and 1, respectively). For the same substance, the “Relative activity Enzyme 2” value in experiment [2] is given as 5 (A compound having the same inhibitory activity as that of polyoxin D at the same concentration was given the value 5). Moreover, the “MIC (minimum inhibitory concentration)” value in [3] came to 8 µg/mL; in [4], 2 µg/mL; in experiment [5], 4 µg/mL; in experiment [6] it was 0.5 µg/mL; in experiment [7] it was 0.5 µg/mL; in experiment [8] it was 4 µg/mL. Also, the “MIC (minimum inhibitory concentration)” value in experiment [9] was 1 µg/mL; in experiment [10], 1 µg/mL; in experiment [11], 4 µg/mL; in [12], 0.5 µg/mL; in experiment [13], 1 µg/mL; in [14], 4 µg/mL.
With “13-(4-Isopropylbenzyl)-9-O-hexylberberrubine chloride [Compound No. 51]”, the “Relative activity Enzyme 1” value in [1] is 3 (Compounds having the inhibitory activity at 2-fold, 4-fold, 8-fold and 16-fold higher concentrations than that of polyoxin D were given the values of 4, 3, 2 and 1, respectively). In addition, in [2], the “Relative activity Enzyme 2” value was 6 (compounds having the inhibitory activity at ½, ¼ and ⅛ lower concentrations than that of polyoxin D were given the values of 6, 7 and 8, respectively). For the same substance, the “MIC (minimum inhibitory concentration)” value was 8 µg/mL in experiment [3]; 2 µg/mL in [4]; 8 µg/mL in experiment [5]; 0.25 µg/mL in [6]; 0.25 µg/mL in experiment [7]; 2 µg/mL in experiment [8]. For the same substance, the “MIC (minimum inhibitory concentration)” value turned out to be 1 µg/mL in experiment [9]; 0.5 µg/mL in experiment [10]; 2 µg/mL in [11]; 0.125 µg/mL in experiment [12]; 0.5 µg/mL in [13]; 4 µg/mL in experiment [14].
On to “13-(4-Isopropylbenzyl)-9-O-hexylberberrubine iodide [Compound No. 19]”, for which the “Relative activity Enzyme 1” value in experiment [1] is 4 (Compounds having the inhibitory activity at 2-fold, 4-fold, 8-fold and 16-fold higher concentrations than that of polyoxin D were given the values of 4, 3, 2 and 1, respectively). Further, the “Relative activity Enzyme 2” value in experiment [2] was 6 (compounds having the inhibitory activity at ½, ¼ and ⅛ lower concentrations than that of polyoxin D were given the values of 6, 7 and 8, respectively). Besides, the “MIC (minimum inhibitory concentration)” value in experiment [3] was found to be 8 µg/mL; in [4], 2 µg/mL; in experiment [5], 8 µg/mL; in experiment [6], 0.25 µg/mL; in experiment [7] it was 0.25 µg/mL; in experiment [8], 2 µg/mL. The “MIC (minimum inhibitory concentration)” value in experiment [9] was found to be 1 µg/mL; in experiment [10] it was 1 µg/mL; in [11], 2 µg/mL; in experiment [12] it was 0.125 µg/mL; in experiment [13] it was 1 µg/mL; in [14], 4 µg/mL.
